Our source for the EC50 values is patent US10556907B2 (AbbVie Inc., priority 2015, dated 2020).

Where two headings read alike, the source gives them in different places.

Common to all, as to experiment: Method 1: intracellular Ca2+ release (FLIPR, Calcium 5) in recombinant CHO-K1 cells
What all share (format): cell-based

In one assay the target is T1, human S1PR1 receptor (Homo sapiens, UniProt P21453).
T1 construct: host or cells: CHO-K1
Particulars: (1): determined with method 1; read-out: S1P1 EC50. As for the experimental part: (§1) Agonistic activity was measured using two different methods, described below.
(§2) Method 1. Intracellular Ca^2+ Release
(§3) Agonist potency and intrinsic activity was assessed by measurement of intracellular Ca^2+ release. Recombinant CHO-K1 cells (Euroscreen, Brussels, Belgium) expressing human S1PR5, S1PR1, S1PR3 or S1PR4 receptors, aequorin, and GTP binding protein Gq/i5 were cultured using a medium containing nutrient mixture F-12 Ham (Sigma-Aldrich) with 10% FBS, and 100 μg/mL gentamicin and equilibrated at 5% CO2.
(§4) 15.000 cells in 20 μL medium were seeded into Biocoat poly-D-Lysine coated 384 well plates (Becton Dickinson #35-6663) and grown to 95% confluency after 24 h.
(§5) Culture medium was replaced by an assay buffer consisting of HBBS with Ca^2+ and Mg^2+ (Invitrogen #14025-050), 20 mmol/L Hepes (Sigma-Aldrich #H-3375), 2.5 mmol/L probenecid (Sigma-Aldrich #P-8761, and 0.1% BSA (Sigma-Aldrich #A-7030) pH 7.4. The Calcium 5 no-wash FLIPR assay kit (Molecular Devices #5000625) was performed as described in the kit instructions. Cells were incubated with Calcium 5 dye for 1 h at 37° C., 5% CO2 in the dark. After 45 min adaptation to RT assessment of agonist stimulation of intracellular Ca^2+ release was performed by addition of test compounds at concentrations obtained by serial dilution. Phospho-fingolimod was used as positive control. Antagonists were pre-incubated for 10 min with cells before addition of the agonist (phospho-fingolimod at EC80). Measurements were performed using a fluorometric imaging plate reader FLIPR® tetra (Molecular Devices). Agonist at the human S1P receptors were characterized by deducing EC50 (potency) values from a nonlinear fit to the measured fluorescence raw data after normalization to the reference agonist (phospho-fingolimod) curve.

Another assay addresses T2, human S1PR3 receptor (Homo sapiens, UniProt Q99500).
T2 construct: host or cells: CHO-K1
The following applies: (1): determined with method 1; read-out: S1P3 EC50. As for the experimental part: as §1, §2, §3, §4, §5

In a further assay the target is T3, human S1PR5 receptor (Homo sapiens, UniProt Q9H228).
T3 construct: host or cells: CHO-K1
T3 sequence (Q9H228 whole entry): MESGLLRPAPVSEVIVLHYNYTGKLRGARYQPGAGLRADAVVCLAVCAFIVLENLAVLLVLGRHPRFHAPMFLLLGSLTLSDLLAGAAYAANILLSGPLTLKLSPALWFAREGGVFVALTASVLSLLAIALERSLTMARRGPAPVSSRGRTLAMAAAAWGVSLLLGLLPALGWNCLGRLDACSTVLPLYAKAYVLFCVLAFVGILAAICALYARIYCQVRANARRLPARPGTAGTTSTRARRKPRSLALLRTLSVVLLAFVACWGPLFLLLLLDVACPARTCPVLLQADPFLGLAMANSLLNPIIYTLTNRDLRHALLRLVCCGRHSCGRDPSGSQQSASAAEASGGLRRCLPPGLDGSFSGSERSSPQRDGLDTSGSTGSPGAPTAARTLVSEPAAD
As for the experimental part:
as §1, §2, §3, §4, §5

Setting [1] is: agonist potency, determined with method 1 (symbols A-D), read-out: S1P5 EC50 range.

T1 sequence (P21453 whole entry): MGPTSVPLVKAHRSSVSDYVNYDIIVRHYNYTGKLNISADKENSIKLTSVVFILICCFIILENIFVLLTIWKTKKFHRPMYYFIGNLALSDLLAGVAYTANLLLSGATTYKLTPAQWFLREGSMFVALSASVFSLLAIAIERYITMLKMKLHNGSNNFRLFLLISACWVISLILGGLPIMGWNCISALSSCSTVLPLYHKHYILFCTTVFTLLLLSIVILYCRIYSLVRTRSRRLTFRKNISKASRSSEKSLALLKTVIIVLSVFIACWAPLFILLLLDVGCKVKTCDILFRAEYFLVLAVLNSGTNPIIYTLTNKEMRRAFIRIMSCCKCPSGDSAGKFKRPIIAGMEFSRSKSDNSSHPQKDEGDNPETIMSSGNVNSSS
T2 sequence (Q99500 whole entry): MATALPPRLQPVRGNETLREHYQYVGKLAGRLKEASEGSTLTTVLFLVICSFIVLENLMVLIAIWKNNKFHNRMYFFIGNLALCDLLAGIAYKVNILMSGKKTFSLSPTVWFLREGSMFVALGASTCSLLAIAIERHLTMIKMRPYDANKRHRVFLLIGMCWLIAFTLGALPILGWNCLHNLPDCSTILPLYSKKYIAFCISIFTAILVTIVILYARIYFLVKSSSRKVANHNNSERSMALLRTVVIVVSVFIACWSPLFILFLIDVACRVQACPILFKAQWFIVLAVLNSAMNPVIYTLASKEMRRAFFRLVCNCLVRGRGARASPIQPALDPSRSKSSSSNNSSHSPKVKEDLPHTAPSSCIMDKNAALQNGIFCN

In general, EC50 refers to the concentration giving half of the maximal effect. With `O=C(O)CCN1CCc2nc(-c3ccc(OCc4ccc(Cl)c(Cl)c4)cc3)ncc2C1` [Compound 73, 3-(2-(4-((3,4-dichlorobenzyl)oxy)phenyl)-7,8-dihydropyrido[4,3-d]pyrimidin-6(5H)-yl)propanoic acid], the EC50 on human S1PR1 receptor was more than 1 µM; on human S1PR3 receptor, more than 1 µM; on human S1PR5 receptor (setting [1]), less than 0.01 µM.
Consider `CC(CN1CCc2nc(-c3ccc(OCc4ccccc4F)c(Cl)c3)ccc2C1)C(=O)O` (stereo not shown) [Compound 105, 3-(2-(4-((2-fluorobenzyl)oxy)-3-chlorophenyl)-7,8-dihydro-1,6-naphthyridin-6(5H)-yl)-2-methylpropanoic acid], for which the EC50 at human S1PR1 receptor is more than 1 µM; on human S1PR3 receptor, more than 1 µM; on human S1PR5 receptor (setting [1]), 0.1 to 1 µM.
Consider `CC(CC(=O)O)N1CCc2nc(-c3ccc(OCc4ccc(Cl)cc4)cc3)ncc2C1` (stereo not shown) [Compound 44, 3-(2-(4-((4-chlorobenzyl)oxy)phenyl)-7,8-dihydropyrido[4,3-d]pyrimidin-6(5H)-yl)butanoic acid], for which the 50% effective concentration (EC50) on human S1PR1 receptor was more than 1 µM; on human S1PR3 receptor, more than 1 µM; at human S1PR5 receptor (setting [1]), 0.01 to 0.1 µM.
Consider `CCc1cccc(Cl)c1COc1ccc(-c2nc3c(cc2F)CN(CCC(=O)O)CC3)cc1` [Compound 196, 3-(2-(4-((2-chloro-6-ethylbenzyl)oxy)phenyl)-3-fluoro-7,8-dihydro-1,6-naphthyridin-6(5H)-yl)propanoic acid], for which the results for the half-maximal effective concentration (EC50) on human S1PR1 receptor, at human S1PR3 receptor and on human S1PR5 receptor (setting [1]) were more than 1 µM, more than 1 µM and 0.01 to 0.1 µM, respectively.
With `O=C(O)CCN1CCc2ncc(-c3ccc(OCc4ccccc4)cc3)nc2C1` [Compound 221, 3-(3-(4-(benzyloxy)phenyl)-7,8-dihydropyrido[3,4-b]pyrazin-6(5H)-yl)propanoic acid], the EC50 on human S1PR1 receptor was more than 1 µM; on human S1PR3 receptor, more than 1 µM; on human S1PR5 receptor (setting [1]), 1 to 10 µM.
`O=C(O)CCN1CCc2nc(-c3ccc(OCc4cccc(F)c4)cc3)ncc2C1` [Compound 68, 3-(2-(4-((3-fluorobenzyl)oxy)phenyl)-7,8-dihydropyrido[4,3-d]pyrimidin-6(5H)-yl)propanoic acid]: the EC50 is more than 1 µM on human S1PR1 receptor, more than 1 µM at human S1PR3 receptor and 0.01 to 0.1 µM at human S1PR5 receptor (setting [1]).
Regarding `O=C(O)CCN1CCc2nc(-c3ccc(OCc4ccccc4OC(F)(F)F)cc3)ncc2C1` [Compound 84, 3-(2-(4-((2-(trifluoromethoxy)benzyl)oxy)phenyl)-7,8-dihydropyrido[4,3-d]pyrimidin-6(5H)-yl)propanoic acid], the values for the half-maximal effective concentration (EC50) on human S1PR1 receptor, on human S1PR3 receptor and at human S1PR5 receptor (setting [1]) were more than 1 µM, more than 1 µM and 0.01 to 0.1 µM, respectively.
Take `O=C(O)CCN1CCc2nc(-c3ccc(OCc4ccc(F)cc4)cc3)c(F)cc2C1` [Compound 190, 3-(2-(4-((4-fluorobenzyl)oxy)phenyl)-3-fluoro-7,8-dihydro-1,6-naphthyridin-6(5H)-yl)propanoic acid]: the figures for the EC50 on human S1PR1 receptor, at human S1PR3 receptor and at human S1PR5 receptor (setting [1]) were less than 1 µM, more than 1 µM and less than 0.01 µM, respectively.
As to `O=C(O)CC1(CN2CCc3nc(-c4ccc(OCc5ccc(Cl)cc5)cc4)ncc3C2)CC1` [Compound 286, 2-((4(2-(4-((4-chlorobenzyl)oxy)phenyl)-7,8-dihydropyrido[4,3-d]pyrimidin-6(5H)-yl)methyl)cyclopropyl)acetic acid], the concentration for a half-maximal effect (EC50) at human S1PR5 receptor (setting [1]) is 0.1 to 1 µM.
With `O=C(O)CC1(CN2CCc3nc(-c4ccc(OCc5cccc(Cl)c5)cc4)ncc3C2)CC1` [Compound 327, 2-((4(2-(4-((3-chlorobenzyl)oxy)phenyl)-7,8-dihydropyrido[4,3-d]pyrimidin-6(5H)-yl)methyl)cyclopropyl)acetic acid], the EC50 at human S1PR5 receptor (setting [1]) fell in the range of 1 to 10 µM.
Take `CC(CC(=O)O)CN1Cc2cnc(-c3ccc(OCc4ccc(Cl)cc4)cc3)nc2CC12CCC2` (stereo not shown) [Compound 326, 4-(2′-(4-((4-chlorobenzyl)oxy)phenyl)-5′H-spiro[cyclobutane-1,7′-pyrido[4,3-d]pyrimidin]-6′(8′H)-yl)-3-methylbutanoic acid]: the EC50 at human S1PR3 receptor is more than 1 µM; on human S1PR5 receptor ((1): determined with method 1, read-out: S1P5 EC50 range (bound printed instead of class symbol)), more than 1 µM.
